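In this assay, cells in 96-well plates receive the compound at five concentrations for 48 hours. Endpoints are linearly interpolated between the surrounding concentrations. At the GI50, growth is halved. TGI is the concentration that stops growth completely.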
Legend:
Assay in all cases: DTP human tumour cell line panel, 48 h
CCRF-CEM leukemia = tested on: CCRF-CEM leukemia
MOLT-4 leukemia = tested on: MOLT-4 leukemia
OVCAR-5 ovarian = tested on: OVCAR-5 ovarian
SF-268 CNS = tested on: SF-268 CNS
NCI-H23 lung = tested on: NCI-H23 lung
NCI-H522 lung = tested on: NCI-H522 lung
A549 NSCLC = tested on: A549 NSCLC
DU-145 prostate = tested on: DU-145 prostate
HCC-2998 colon = tested on: HCC-2998 colon
RXF 393 renal = tested on: RXF 393 renal

C=CCc1cc(Nc2c3ccc(Cl)cc3nc3ccc(OC)cc23)cc(CN(CC)CC)c1O
GI50 (CCRF-CEM leukemia): 0.8 µM
TGI (CCRF-CEM leukemia): 4.26 µM
GI50 (MOLT-4 leukemia): 1.24 µM
TGI (MOLT-4 leukemia): 4.92 µM
GI50 (OVCAR-5 ovarian): 6.75 µM
TGI (OVCAR-5 ovarian): 26 µM
GI50 (SF-268 CNS): 2.9 µM
TGI (SF-268 CNS): 16 µM
GI50 (NCI-H23 lung): 0.559 µM
TGI (NCI-H23 lung): 9.91 µM
GI50 (NCI-H522 lung): 1.77 µM
TGI (NCI-H522 lung): 5.96 µM
GI50 (A549 NSCLC): 3.26 µM
TGI (A549 NSCLC): 13.9 µM
GI50 (DU-145 prostate): 1.96 µM
TGI (DU-145 prostate): 14.2 µM
GI50 (HCC-2998 colon): 2.71 µM
TGI (HCC-2998 colon): 16.6 µM
GI50 (RXF 393 renal): 1.23 µM
TGI (RXF 393 renal): 4.66 µM

C[C@@H]1O[C@@H](O[C@@H]2[C@@H](O)[C@H](OCCc3ccc(O)c(O)c3)O[C@H](CO)[C@H]2OC(=O)/C=C/c2ccc(O)c(O)c2)[C@H](O)[C@H](OC2OC[C@](O)(CO)[C@H]2O)[C@H]1O (stereo not given in full)
GI50 (MOLT-4 leukemia): > 100 µM
TGI (MOLT-4 leukemia): > 100 µM
GI50 (OVCAR-5 ovarian): > 100 µM
TGI (OVCAR-5 ovarian): > 100 µM
TGI (SF-268 CNS): 53.4 µM
GI50 (NCI-H522 lung): > 100 µM
TGI (NCI-H522 lung): > 100 µM
GI50 (A549 NSCLC): > 100 µM
TGI (A549 NSCLC): > 100 µM
GI50 (DU-145 prostate): 16.9 µM
TGI (DU-145 prostate): 48 µM
GI50 (RXF 393 renal): 72 µM
TGI (RXF 393 renal): > 100 µM

Oc1cccc2c1NCCC2
GI50 (CCRF-CEM leukemia): 0.219 µM
TGI (CCRF-CEM leukemia): > 100 µM
GI50 (MOLT-4 leukemia): 1.27 µM
TGI (MOLT-4 leukemia): > 100 µM
GI50 (OVCAR-5 ovarian): 4.35 µM
TGI (OVCAR-5 ovarian): > 100 µM
GI50 (SF-268 CNS): 0.244 µM
TGI (SF-268 CNS): > 67.2 µM
GI50 (NCI-H23 lung): 0.103 µM
TGI (NCI-H23 lung): > 37 µM
GI50 (NCI-H522 lung): 0.0937 µM
TGI (NCI-H522 lung): 1.75 µM
GI50 (A549 NSCLC): 0.111 µM
TGI (A549 NSCLC): > 32.2 µM
GI50 (DU-145 prostate): 0.229 µM
TGI (DU-145 prostate): 54.8 µM
GI50 (HCC-2998 colon): 3.67 µM
TGI (HCC-2998 colon): > 89.7 µM
GI50 (RXF 393 renal): 0.177 µM
TGI (RXF 393 renal): 32.7 µM

N/C(=N\OC(=O)c1ccccc1)C(Cc1ccccc1)C(=O)NOC(=O)c1ccccc1 (stereo not given)
GI50 (CCRF-CEM leukemia): 2.18 µM
TGI (CCRF-CEM leukemia): 6.07 µM
GI50 (MOLT-4 leukemia): 2.21 µM
TGI (MOLT-4 leukemia): 5.85 µM
GI50 (OVCAR-5 ovarian): 9.1 µM
TGI (OVCAR-5 ovarian): 24.3 µM
GI50 (SF-268 CNS): 1.64 µM
TGI (SF-268 CNS): 3.33 µM
GI50 (NCI-H23 lung): 3.54 µM
TGI (NCI-H23 lung): 17.4 µM
GI50 (NCI-H522 lung): 1.7 µM
TGI (NCI-H522 lung): 3.47 µM
GI50 (A549 NSCLC): 1.52 µM
TGI (A549 NSCLC): 3.22 µM
GI50 (DU-145 prostate): 1.58 µM
TGI (DU-145 prostate): 3.07 µM
GI50 (HCC-2998 colon): 5.4 µM
TGI (HCC-2998 colon): 19.7 µM
GI50 (RXF 393 renal): 1.97 µM
TGI (RXF 393 renal): 5.6 µM

CN1CCc2nc3sc(C(N)=O)c(N)c3c(-c3cccs3)c2C1
GI50 (CCRF-CEM leukemia): 3.77 µM
TGI (CCRF-CEM leukemia): > 100 µM
GI50 (MOLT-4 leukemia): 2.89 µM
TGI (MOLT-4 leukemia): 48.4 µM
GI50 (SF-268 CNS): 3.85 µM
TGI (SF-268 CNS): > 100 µM
GI50 (NCI-H23 lung): 2.87 µM
TGI (NCI-H23 lung): 12.6 µM
GI50 (NCI-H522 lung): 2.91 µM
TGI (NCI-H522 lung): 17.8 µM
GI50 (A549 NSCLC): 3.37 µM
TGI (A549 NSCLC): > 100 µM
GI50 (DU-145 prostate): 3.91 µM
TGI (DU-145 prostate): 86.9 µM
GI50 (HCC-2998 colon): 3.54 µM
TGI (HCC-2998 colon): 20.9 µM
GI50 (RXF 393 renal): 1.11 µM
TGI (RXF 393 renal): 3.63 µM

N#CCCNc1nonc1-c1nc2ccccc2n1CC(=O)c1ccc(NC(=O)[C@@H](N)CCCCN)cc1
GI50 (CCRF-CEM leukemia): 0.0368 µM
TGI (CCRF-CEM leukemia): > 100 µM
GI50 (MOLT-4 leukemia): 0.0451 µM
TGI (MOLT-4 leukemia): > 100 µM
GI50 (OVCAR-5 ovarian): 0.0644 µM
TGI (OVCAR-5 ovarian): > 100 µM
GI50 (SF-268 CNS): 0.071 µM
TGI (SF-268 CNS): > 100 µM
GI50 (NCI-H23 lung): 0.0483 µM
GI50 (NCI-H522 lung): 0.0363 µM
TGI (NCI-H522 lung): > 100 µM
GI50 (A549 NSCLC): 0.0463 µM
TGI (A549 NSCLC): > 100 µM
GI50 (DU-145 prostate): 0.0323 µM
TGI (DU-145 prostate): 0.0994 µM
GI50 (HCC-2998 colon): 0.0308 µM
TGI (HCC-2998 colon): > 92.2 µM
GI50 (RXF 393 renal): 0.0353 µM
TGI (RXF 393 renal): > 100 µM
